Data: the NIST ThermoML archive (doi:10.1021/je200616t)
Several values for one entry are separate records, joined by “and”; a condition that tells them apart may be missing. Equal values may be shown once.

Columns and labels:
[1] = Liquid, MP522 conductivity instrument
[2] = xn = mol fraction of the nth substance listed; conditions: 298.15 K, 101 kPa, Liquid, MP522 conductivity instrument

CC[n+]1ccccc1.O=S(=O)([N-]S(=O)(=O)C(F)(F)F)C(F)(F)F [1-ethylpyridinium bis[(trifluoromethyl)sulfonyl]imide]
Conditions	electrical conductivity
[1], 298.15 K, 101 kPa	0.63 S/m and 0.629 S/m

CC[n+]1ccccc1.O=S(=O)([N-]S(=O)(=O)C(F)(F)F)C(F)(F)F [1-ethylpyridinium bis[(trifluoromethyl)sulfonyl]imide] + CO
[2]
Conditions	electrical conductivity [S/m]
x1 = 0.0169	1.42
x1 = 0.0206	1.61
x1 = 0.03	2
x1 = 0.0416	2.42
x1 = 0.0535	2.7
x1 = 0.068	2.93
x1 = 0.089	3.11
x1 = 0.1049	3.17
x1 = 0.1209	3.19
x1 = 0.1541	3.14
x1 = 0.2007	2.95
x1 = 0.2781	2.55
x1 = 0.3667	2.12
x1 = 0.4224	1.9
x1 = 0.5562	1.44
x1 = 0.6863	1.12
x1 = 0.8307	0.863
x1 = 1	0.63

CCCC[n+]1ccc(C)cc1.O=S(=O)([N-]S(=O)(=O)C(F)(F)F)C(F)(F)F
Conditions	electrical conductivity
[1], 298.15 K, 101 kPa	0.332 S/m and 0.333 S/m

CC[n+]1ccc(C)cc1.O=S(=O)([N-]S(=O)(=O)C(F)(F)F)C(F)(F)F
Conditions	electrical conductivity
[1], 298.15 K, 101 kPa	0.771 S/m and 0.769 S/m

CCCC[n+]1ccc(C)cc1.O=S(=O)([N-]S(=O)(=O)C(F)(F)F)C(F)(F)F + CCO
[2]
Conditions	electrical conductivity [S/m]
x1 = 0.011	0.243
x1 = 0.0125	0.269
x1 = 0.015	0.311
x1 = 0.0186	0.369
x1 = 0.0258	0.474
x1 = 0.0376	0.623
x1 = 0.0436	0.689
x1 = 0.0602	0.844
x1 = 0.0676	0.901
x1 = 0.0852	1.01
x1 = 0.1143	1.13
x1 = 0.1262	1.16
x1 = 0.1387	1.19
x1 = 0.1537	1.21
x1 = 0.1811	1.23
x1 = 0.2232	1.22
x1 = 0.2748	1.17
x1 = 0.3347	1.1
x1 = 0.3809	1.03
x1 = 0.4405	0.939
x1 = 0.5405	0.793
x1 = 0.642	0.663
x1 = 0.7148	0.579
x1 = 0.8106	0.482
x1 = 0.9328	0.379
x1 = 1	0.333

CCCCC[n+]1ccccc1.O=S(=O)([N-]S(=O)(=O)C(F)(F)F)C(F)(F)F [1-pentylpyridinium bis(trifluoromethylsulfonyl)amide] + CCO
[2]
Conditions	electrical conductivity [S/m]
x1 = 0.0223	0.403
x1 = 0.0292	0.483
x1 = 0.0374	0.574
x1 = 0.0477	0.669
x1 = 0.0603	0.761
x1 = 0.0725	0.831
x1 = 0.092	0.912
x1 = 0.1279	0.991
x1 = 0.1529	1.01
x1 = 0.1636	1.01
x1 = 0.175	1.01
x1 = 0.2038	0.998
x1 = 0.2608	0.941
x1 = 0.3058	0.882
x1 = 0.3508	0.82
x1 = 0.4166	0.731
x1 = 0.4692	0.662
x1 = 0.5309	0.587
x1 = 0.6063	0.503
x1 = 0.6746	0.437
x1 = 0.7613	0.363
x1 = 0.8138	0.325
x1 = 0.8772	0.283
x1 = 0.9319	0.251
x1 = 1	0.216

CC[n+]1ccc(C)cc1.O=S(=O)([N-]S(=O)(=O)C(F)(F)F)C(F)(F)F + CO
[2]
Conditions	electrical conductivity [S/m]
x1 = 0.00925	0.925
x1 = 0.0105	1.01
x1 = 0.0144	1.27
x1 = 0.0176	1.45
x1 = 0.0227	1.72
x1 = 0.0313	2.1
x1 = 0.0393	2.36
x1 = 0.0492	2.62
x1 = 0.0575	2.79
x1 = 0.0666	2.94
x1 = 0.0757	3.05
x1 = 0.0856	3.14
x1 = 0.0993	3.22
x1 = 0.1435	3.26
x1 = 0.1601	3.23
x1 = 0.1736	3.2
x1 = 0.1902	3.14
x1 = 0.2037	3.09
x1 = 0.2297	2.97
x1 = 0.2575	2.84
x1 = 0.284	2.72
x1 = 0.3231	2.53
x1 = 0.3561	2.39
x1 = 0.3932	2.23
x1 = 0.4574	2
x1 = 0.5075	1.81
x1 = 0.5713	1.61
x1 = 0.6042	1.52
x1 = 0.6803	1.33
x1 = 0.7416	1.2
x1 = 0.8215	1.04
x1 = 0.8959	0.912
x1 = 0.918	0.883
x1 = 1	0.771

CCCCC[n+]1ccccc1.O=S(=O)([N-]S(=O)(=O)C(F)(F)F)C(F)(F)F [1-pentylpyridinium bis(trifluoromethylsulfonyl)amide]
Conditions	electrical conductivity [S/m]
[1], 298.15 K, 101 kPa	0.216

CCCC[n+]1ccccc1.O=S(=O)([N-]S(=O)(=O)C(F)(F)F)C(F)(F)F [1-butylpyridinium bis[(trifluoromethyl)sulfonyl]imide] + CO
[2]
Conditions	electrical conductivity [S/m]
x1 = 0.00227	0.302
x1 = 0.00676	0.679
x1 = 0.0112	0.961
x1 = 0.0179	1.29
x1 = 0.023	1.5
x1 = 0.0297	1.71
x1 = 0.0427	1.99
x1 = 0.0507	2.12
x1 = 0.0696	2.28
x1 = 0.092	2.35
x1 = 0.1676	2.15
x1 = 0.2137	1.96
x1 = 0.2653	1.72
x1 = 0.2984	1.58
x1 = 0.3655	1.33
x1 = 0.4009	1.22
x1 = 0.4397	1.11
x1 = 0.5194	0.91
x1 = 0.561	0.825
x1 = 0.6014	0.749
x1 = 0.6433	0.681
x1 = 0.7132	0.581
x1 = 0.7592	0.523
x1 = 0.8182	0.456
x1 = 0.8544	0.421
x1 = 0.8988	0.381
x1 = 0.9425	0.346
x1 = 1	0.308

CC[n+]1ccccc1.O=S(=O)([N-]S(=O)(=O)C(F)(F)F)C(F)(F)F [1-ethylpyridinium bis[(trifluoromethyl)sulfonyl]imide] + CCO
[2]
Conditions	electrical conductivity [S/m]
x1 = 0.0428	0.803
x1 = 0.0551	0.956
x1 = 0.0755	1.16
x1 = 0.0881	1.26
x1 = 0.1135	1.43
x1 = 0.1366	1.54
x1 = 0.1789	1.67
x1 = 0.2096	1.71
x1 = 0.234	1.73
x1 = 0.2537	1.73
x1 = 0.2781	1.72
x1 = 0.3029	1.7
x1 = 0.3612	1.64
x1 = 0.4404	1.51
x1 = 0.4844	1.44
x1 = 0.5537	1.31
x1 = 0.5948	1.24
x1 = 0.6418	1.16
x1 = 0.7011	1.05
x1 = 0.76	0.954
x1 = 0.8228	0.858
x1 = 0.8845	0.769
x1 = 1	0.629

CCCC[n+]1ccccc1.O=S(=O)([N-]S(=O)(=O)C(F)(F)F)C(F)(F)F [1-butylpyridinium bis[(trifluoromethyl)sulfonyl]imide] + CCO
[2]
Conditions	electrical conductivity [S/m]
x1 = 0.02	0.389
x1 = 0.0313	0.543
x1 = 0.0415	0.66
x1 = 0.0601	0.83
x1 = 0.0722	0.915
x1 = 0.103	1.06
x1 = 0.1448	1.16
x1 = 0.1659	1.18
x1 = 0.184	1.19
x1 = 0.196	1.19
x1 = 0.2208	1.18
x1 = 0.2693	1.14
x1 = 0.3122	1.09
x1 = 0.362	1.02
x1 = 0.424	0.926
x1 = 0.4616	0.872
x1 = 0.5169	0.793
x1 = 0.5597	0.735
x1 = 0.6073	0.674
x1 = 0.6706	0.598
x1 = 0.7463	0.516
x1 = 0.8415	0.426
x1 = 0.8925	0.383
x1 = 1	0.307

CCCC[n+]1ccc(C)cc1.O=S(=O)([N-]S(=O)(=O)C(F)(F)F)C(F)(F)F + CO
[2]
Conditions	electrical conductivity [S/m]
x1 = 0.00761	0.7
x1 = 0.00979	0.836
x1 = 0.0118	0.951
x1 = 0.0142	1.07
x1 = 0.0176	1.24
x1 = 0.021	1.38
x1 = 0.0297	1.69
x1 = 0.0366	1.86
x1 = 0.0544	2.15
x1 = 0.0653	2.25
x1 = 0.0711	2.28
x1 = 0.0773	2.32
x1 = 0.1083	2.34
x1 = 0.1388	2.25
x1 = 0.1724	2.11
x1 = 0.1977	2
x1 = 0.2256	1.87
x1 = 0.2662	1.68
x1 = 0.3346	1.4
x1 = 0.3989	1.18
x1 = 0.481	1.02
x1 = 0.5543	0.861
x1 = 0.6316	0.719
x1 = 0.714	0.599
x1 = 0.7932	0.504
x1 = 0.8534	0.444
x1 = 0.9551	0.362
x1 = 1	0.332

CCCC[n+]1ccccc1.O=S(=O)([N-]S(=O)(=O)C(F)(F)F)C(F)(F)F [1-butylpyridinium bis[(trifluoromethyl)sulfonyl]imide]
electrical conductivity, [1]
Conditions	283.15 K	293.15 K	298.15 K	303.15 K	313.15 K
101 kPa	0.151 S/m	–	0.308 S/m	0.377 S/m	0.542 S/m and 0.54 S/m
101.33 kPa	0.15 S/m and 0.151 S/m	0.246 S/m	0.307 S/m and 0.308 S/m	0.378 S/m and 0.377 S/m	0.541 S/m and 0.542 S/m and 0.54 S/m

CC[n+]1ccc(C)cc1.O=S(=O)([N-]S(=O)(=O)C(F)(F)F)C(F)(F)F + CCO
[2]
Conditions	electrical conductivity [S/m]
x1 = 0.0118	0.292
x1 = 0.0152	0.36
x1 = 0.021	0.468
x1 = 0.0327	0.669
x1 = 0.0593	1.04
x1 = 0.07	1.16
x1 = 0.0857	1.31
x1 = 0.1196	1.56
x1 = 0.1573	1.73
x1 = 0.2361	1.87
x1 = 0.3013	1.86
x1 = 0.3773	1.77
x1 = 0.4527	1.65
x1 = 0.53	1.51
x1 = 0.608	1.37
x1 = 0.6908	1.22
x1 = 0.7803	1.07
x1 = 0.8913	0.903
x1 = 1	0.769

CCCCCC[n+]1ccccc1.O=S(=O)([N-]S(=O)(=O)C(F)(F)F)C(F)(F)F [1-hexylpyridinium bis(trifluromethylsulfonyl)imide]
[1], 101 kPa
Conditions	electrical conductivity
283.15 K	0.0737 S/m
293.15 K	0.128 S/m and 0.129 S/m
298.15 K	0.163 S/m
303.15 K	0.205 S/m
313.15 K	0.306 S/m

CCCCC[n+]1ccccc1.O=S(=O)([N-]S(=O)(=O)C(F)(F)F)C(F)(F)F [1-pentylpyridinium bis(trifluoromethylsulfonyl)amide] + CO
[2]
Conditions	electrical conductivity [S/m]
x1 = 0.00257	0.323
x1 = 0.00682	0.658
x1 = 0.012	0.966
x1 = 0.0185	1.26
x1 = 0.0256	1.5
x1 = 0.0325	1.67
x1 = 0.0398	1.82
x1 = 0.0546	1.97
x1 = 0.0734	2.1
x1 = 0.0854	2.11
x1 = 0.1093	2.05
x1 = 0.1709	1.82
x1 = 0.2113	1.61
x1 = 0.3105	1.22
x1 = 0.3653	1.03
x1 = 0.4197	0.886
x1 = 0.4604	0.788
x1 = 0.5266	0.652
x1 = 0.5689	0.585
x1 = 0.6107	0.522
x1 = 0.6447	0.479
x1 = 0.7183	0.401
x1 = 0.7639	0.361
x1 = 0.8278	0.313
x1 = 0.8938	0.27
x1 = 0.9397	0.246
x1 = 1	0.216
